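Each compound was tested at five concentrations against cells in 96-well plates for 48 hours. At the GI50, growth is halved.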 Activity calls are given as the source filed them. No stated cut-off is given here; in the data, active = GI50 up to about 1.1 µM and inactive = higher.
Tests used:
Assay in all cases: growth of human tumour cells (NCI), 48 h
SK-MEL-2 = test system: SK-MEL-2
SK-OV-3 = test system: SK-OV-3
NCI-H23 = test system: NCI-H23
A549 = test system: A549
ACHN = test system: ACHN
CCRF-CEM = test system: CCRF-CEM
UO-31 = test system: UO-31
COLO 205 = test system: COLO 205
OVCAR-3 = test system: OVCAR-3
MCF7 = test system: MCF7
EKVX = test system: EKVX
SF-295 = test system: SF-295
NCI-H226 = test system: NCI-H226
SK-MEL-28 = test system: SK-MEL-28
CAKI-1 = test system: CAKI-1
Malme-3M = test system: Malme-3M

Measured: GI50

C=CC1OC(CCCOC(=O)C(C)(C)C)O[C@@H]1CC (some centres not stated)
inactive: SK-MEL-2 > 100 µM | SK-OV-3 > 100 µM | NCI-H23 > 100 µM | A549 > 100 µM | ACHN > 100 µM | CCRF-CEM > 100 µM | UO-31 > 100 µM | COLO 205 > 100 µM | OVCAR-3 > 100 µM | MCF7 > 100 µM | EKVX > 100 µM | SF-295 > 100 µM | NCI-H226 > 100 µM | SK-MEL-28 > 100 µM | CAKI-1 > 100 µM

COc1cc(C2S/C(=C/c3ccccc3)C(=O)N2c2cccc(NC(C)=O)c2)cc(OC)c1OC (configuration not stated)
inactive: SK-OV-3 56 µM | NCI-H23 38 µM | A549 39.2 µM | ACHN 37.2 µM | CCRF-CEM 40.2 µM | UO-31 36.6 µM | COLO 205 27.3 µM | MCF7 26.1 µM | EKVX 19.3 µM | SF-295 40.5 µM | NCI-H226 > 100 µM | Malme-3M 23.4 µM | SK-MEL-28 90.2 µM | CAKI-1 25.9 µM

OC(c1cccnc1Cl)c1nc2ccccc2c2ccnc(Cl)c12 (configuration not stated)
inactive: SK-MEL-2 4.94 µM | SK-OV-3 8.38 µM | NCI-H23 20.5 µM | A549 7.76 µM | ACHN 9.91 µM | UO-31 8.87 µM | COLO 205 3.38 µM | OVCAR-3 6.08 µM | MCF7 3.04 µM | EKVX 19.2 µM | SF-295 2.52 µM | Malme-3M 6.92 µM | SK-MEL-28 23.7 µM | CAKI-1 6.25 µM

CN1C[C@H]2[C@@H](C1=O)[C@H](c1ccc([N+](=O)[O-])cc1)ON2C
inactive: SK-MEL-2 > 100 µM | SK-OV-3 > 100 µM | NCI-H23 > 100 µM | A549 > 100 µM | ACHN > 100 µM | CCRF-CEM > 100 µM | UO-31 > 100 µM | COLO 205 > 100 µM | OVCAR-3 > 100 µM | MCF7 > 100 µM | SF-295 > 100 µM | NCI-H226 > 100 µM | SK-MEL-28 > 100 µM | CAKI-1 > 100 µM

CCOP(=O)(COCCn1nc(Br)c(=O)[nH]c1=O)OCC
inactive: SK-MEL-2 > 100 µM | NCI-H23 > 100 µM | A549 > 100 µM | ACHN > 100 µM | CCRF-CEM > 100 µM | UO-31 > 100 µM | COLO 205 > 100 µM | OVCAR-3 > 100 µM | MCF7 > 100 µM | EKVX > 100 µM | NCI-H226 > 100 µM | Malme-3M > 100 µM | SK-MEL-28 > 100 µM | CAKI-1 > 100 µM

CCOC(=O)c1c(NC(=O)Nc2ccccc2)c(C(N)=O)c2n1CCCCC2
inactive: SK-MEL-2 > 100 µM | SK-OV-3 > 100 µM | NCI-H23 > 100 µM | ACHN > 100 µM | CCRF-CEM > 100 µM | UO-31 > 100 µM | COLO 205 > 100 µM | MCF7 > 100 µM | EKVX > 100 µM | SF-295 > 100 µM | NCI-H226 > 100 µM | SK-MEL-28 > 100 µM | CAKI-1 > 100 µM

CCN1c2ccccc2NC(=S)c2c(-c3ccccc3)n[nH]c21
inactive: SK-MEL-2 25.3 µM | SK-OV-3 34 µM | NCI-H23 26.5 µM | A549 24.8 µM | ACHN 37.2 µM | CCRF-CEM 18.3 µM | COLO 205 31.5 µM | OVCAR-3 53.3 µM | MCF7 22.4 µM | EKVX 21 µM | SF-295 27.4 µM | SK-MEL-28 45.6 µM | CAKI-1 52.8 µM
